Results taken from PMC9516332 (Frontiers in Oncology, 2022).

Legend:
Assay in all cases: Kinase panel profiling at 1 µmol/L (MSA or IMAP), percentage inhibition
Type in all cases: biochemical
[1] = biological target: T1, panel of 255 wild-type kinases (Homo sapiens, UniProt O60285); settings: NuaK1; 1 µmol/L single concentration; read-out: %-inhibition, NuaK1
T1 sequence (O60285 1-661): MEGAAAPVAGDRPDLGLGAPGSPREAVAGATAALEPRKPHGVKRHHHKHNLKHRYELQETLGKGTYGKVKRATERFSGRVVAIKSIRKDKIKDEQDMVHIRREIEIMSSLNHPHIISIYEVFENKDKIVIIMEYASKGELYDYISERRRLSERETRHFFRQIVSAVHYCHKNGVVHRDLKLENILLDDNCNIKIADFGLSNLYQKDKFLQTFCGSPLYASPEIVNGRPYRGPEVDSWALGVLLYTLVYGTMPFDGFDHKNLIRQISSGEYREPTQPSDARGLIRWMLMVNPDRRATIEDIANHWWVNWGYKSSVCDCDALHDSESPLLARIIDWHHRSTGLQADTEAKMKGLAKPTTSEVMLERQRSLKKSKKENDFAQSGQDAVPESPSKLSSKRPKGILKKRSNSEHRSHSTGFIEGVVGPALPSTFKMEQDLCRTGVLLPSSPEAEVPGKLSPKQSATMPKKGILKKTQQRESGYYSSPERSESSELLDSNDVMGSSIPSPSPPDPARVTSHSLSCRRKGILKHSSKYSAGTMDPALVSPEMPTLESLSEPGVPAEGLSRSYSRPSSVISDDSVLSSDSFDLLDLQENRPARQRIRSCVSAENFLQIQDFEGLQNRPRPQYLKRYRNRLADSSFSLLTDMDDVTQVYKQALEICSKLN

[2] = biological target: panel of 255 wild-type kinases (Homo sapiens, UniProt O95819); settings: kinase HGK; 1 µmol/L single concentration; read-out: %-inhibition at 1 µmol/L, HGK
[3] = biological target: panel of 255 wild-type kinases (Homo sapiens, UniProt P23458); settings: kinase JAK1; 1 µmol/L single concentration; read-out: %-inhibition at 1 µmol/L, JAK1
[4] = biological target: T2, panel of 255 wild-type kinases (Homo sapiens, UniProt P29320); settings: kinase EPHA3; 1 µmol/L single concentration; read-out: %-inhibition at 1 µmol/L, EPHA3
T2 sequence (P29320 21-983): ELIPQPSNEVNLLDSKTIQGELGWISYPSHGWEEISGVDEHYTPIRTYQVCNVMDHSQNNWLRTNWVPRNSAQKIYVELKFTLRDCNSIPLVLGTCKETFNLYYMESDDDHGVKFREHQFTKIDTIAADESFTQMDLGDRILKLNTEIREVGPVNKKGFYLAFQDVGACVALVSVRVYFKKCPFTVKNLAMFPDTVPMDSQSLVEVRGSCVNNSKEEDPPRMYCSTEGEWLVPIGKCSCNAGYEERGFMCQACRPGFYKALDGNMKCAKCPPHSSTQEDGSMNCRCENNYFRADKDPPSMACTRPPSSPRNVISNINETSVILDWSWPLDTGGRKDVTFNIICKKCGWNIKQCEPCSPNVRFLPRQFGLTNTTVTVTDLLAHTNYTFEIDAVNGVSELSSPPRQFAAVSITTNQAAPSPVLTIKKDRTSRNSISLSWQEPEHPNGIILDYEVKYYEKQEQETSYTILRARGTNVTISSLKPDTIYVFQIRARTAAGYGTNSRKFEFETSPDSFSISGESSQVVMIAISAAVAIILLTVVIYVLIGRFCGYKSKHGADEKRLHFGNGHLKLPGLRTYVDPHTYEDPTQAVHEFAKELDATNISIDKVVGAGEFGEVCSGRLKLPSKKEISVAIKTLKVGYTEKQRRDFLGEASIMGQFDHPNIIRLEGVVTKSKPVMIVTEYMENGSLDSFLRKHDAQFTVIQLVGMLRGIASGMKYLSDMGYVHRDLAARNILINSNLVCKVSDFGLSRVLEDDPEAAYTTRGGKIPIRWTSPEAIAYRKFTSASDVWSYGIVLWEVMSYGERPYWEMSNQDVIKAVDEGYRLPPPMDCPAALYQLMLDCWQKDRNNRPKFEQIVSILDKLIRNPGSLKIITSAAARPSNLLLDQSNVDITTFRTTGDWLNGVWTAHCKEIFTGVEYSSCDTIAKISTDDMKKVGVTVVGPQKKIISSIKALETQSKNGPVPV

[5] = biological target: T3, panel of 255 wild-type kinases (Homo sapiens, UniProt P30530); settings: AXL kinase assay; 1 µmol/L single concentration; read-out: %-inhibition AXL
T3 sequence (P30530 26-894): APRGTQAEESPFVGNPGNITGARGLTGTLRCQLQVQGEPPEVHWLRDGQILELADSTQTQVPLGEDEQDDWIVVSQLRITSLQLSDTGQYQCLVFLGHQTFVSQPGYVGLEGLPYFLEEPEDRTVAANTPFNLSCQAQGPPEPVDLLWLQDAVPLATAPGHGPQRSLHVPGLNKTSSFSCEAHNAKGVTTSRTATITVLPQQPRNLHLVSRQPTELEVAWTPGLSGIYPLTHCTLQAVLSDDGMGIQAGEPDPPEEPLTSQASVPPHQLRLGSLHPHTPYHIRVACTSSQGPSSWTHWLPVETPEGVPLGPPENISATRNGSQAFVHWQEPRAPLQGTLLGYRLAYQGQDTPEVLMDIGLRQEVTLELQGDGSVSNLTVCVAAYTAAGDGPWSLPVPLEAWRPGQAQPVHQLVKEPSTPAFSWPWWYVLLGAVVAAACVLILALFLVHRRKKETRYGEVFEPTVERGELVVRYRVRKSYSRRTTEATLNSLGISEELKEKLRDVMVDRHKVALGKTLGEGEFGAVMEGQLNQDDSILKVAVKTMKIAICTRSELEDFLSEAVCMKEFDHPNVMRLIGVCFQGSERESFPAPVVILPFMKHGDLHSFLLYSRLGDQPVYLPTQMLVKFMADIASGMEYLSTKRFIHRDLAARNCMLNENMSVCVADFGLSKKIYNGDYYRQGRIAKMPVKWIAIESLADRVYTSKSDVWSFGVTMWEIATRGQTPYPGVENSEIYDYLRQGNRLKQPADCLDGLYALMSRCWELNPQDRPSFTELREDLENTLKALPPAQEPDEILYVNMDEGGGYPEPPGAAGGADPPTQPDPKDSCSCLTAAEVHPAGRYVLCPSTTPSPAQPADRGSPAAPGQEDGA

[6] = biological target: panel of 255 wild-type kinases (Homo sapiens, UniProt P49761); settings: kinase CLK3; 1 µmol/L single concentration; read-out: %-inhibition at 1 µmol/L, CLK3

Structure (SMILES) | inhibition at 1 µM [1] | inhibition at 1 µM [2] | inhibition at 1 µM [3] | inhibition at 1 µM [4] | inhibition at 1 µM [5] | inhibition at 1 µM [6]
CO[C@]1(C(=O)N[C@@H](C)c2ccc(-n3cc(F)cn3)nc2)CC[C@H](c2nc(C)cc(Nc3cc(C)[nH]n3)n2)CC1 [pralsetinib] | 91% | 3% | 101% | 32% | 92% | 9%
CCn1c(=O)c(-c2cc(NC(=O)Nc3ccccc3)c(F)cc2Br)cc2cnc(NC)cc21 [ripretinib] | 4.32% | 13% | 26% | 88% | 4% | -7%
COc1ccc(CN2C3CC2CN(c2ccc(-c4cc(OCC(C)(C)O)cn5ncc(C#N)c45)cn2)C3)cn1 [selpercatinib] | 10% | 7% | 6% | 49% | 93% | 0.425%
Cn1cnc2c(F)c(Nc3ccc(Br)cc3Cl)c(C(=O)NOCCO)cc21 [selumetinib] | 6% | 1.58% | 2.46% | -8% | 26% | 7.48%
Cc1cc(Nc2ncnc3ccc(NC4=NC(C)(C)CO4)cc23)ccc1Oc1ccn2ncnc2c1 [tucatinib] | 9% | 3.65% | 2.72% | -10% | 22% | 5.42%
C=CC(=O)N1CCC([C@@H]2CCNc3c(C(N)=O)c(-c4ccc(Oc5ccccc5)cc4)nn32)CC1 [zanubrutinib] | -7% | 5.63% | -3% | -0.0989% | 4.56% | -3.73%
